The values below come from publication PMC11143095, “Chemically engineered essential oils prepared through thiocyanation under solvent-free conditions: chemical and bioactivity alteration” (Natural Products and Bioprospecting, 2024).

The target in the test is T1, AChE from Electrophorus electricus (Electrophorus electricus, UniProt O42275).
T1 construct: purchased Sigma-Aldrich (St. Louis, MO, USA)
Briefly: biochemical. The settings on record: for IC50: Ellman's reagent, microplate, 37 °C, pH 7.5, read-out: half maximal inhibitory concentration (IC50) against AChE. The method, then:
Microplate assays utilizing Ellman’s reagent were performed to quantitatively assess the inhibitory activity of the isolated compounds against AChE [67].
Ammonium thiocyanate, sodium thiosulfate pentahydrate, anhydrous sodium sulfate and iodine were purchased from Cicarelli Laboratorios (San Lorenzo, Santa Fe). AChE from Electrophorus electricus EC 3.1.1.7, Fast blue salt B (FBB), α-naphthol, α-naphthyl acetate (α-NAc), and CDCl3, were purchased from Sigma-Aldrich (St. Louis, MO, USA). Acetonitrile (LCMS grade) was acquired from Carlo Erba Reagents (Val de Reuil, France) and formic acid from Merck. Aluminium TLC sheets coated with Silica gel 60 F were purchased from Merck (Darmstadt, Germany). Agar was purchased from Britania (Bs. As., Argentina).
Inhibition percentage determinations were carried out using the method applied by Osella et al.. Wells were filled in triplicate with AChE solution (in 0.1 M phosphate buffer, pH 7.5, and 13.7 µU/mL end concentration per well), Ellman’s reagent (DTNB, 5,5dithio-bis-(2-nitrobenzoic acid)), the same buffer solution (0.31 mM end concentration per well) and 10 µL of test compound in DMSO solution (0.05 µM end concentration per well). […] The enzymatic reaction was initiated by addition of acetylthiocholine iodide (0.46 mM end concentration per well). The final volume per well was 270 µL. The plate was shaken for 2 s and the increase in absorbance at 405 nm was monitored at 37 °C for 15 min. For IC50 determination, ten serial dilutions of the compounds were prepared in DMSO, following equally spaced points on a neperian logarithm scale, starting at 2.16 mM and finishing at 0.00023 mM (end concentration per well: 80.00 to 0.00839 µM). IC50 calculated using Prism V5.01 (GraphPad Software Inc., La Jolla, CA, USA) applying a non linear regression curve fit for a log[inhibitor] vs. normalized answer model with variable slope.

T1 sequence (O42275 24-633): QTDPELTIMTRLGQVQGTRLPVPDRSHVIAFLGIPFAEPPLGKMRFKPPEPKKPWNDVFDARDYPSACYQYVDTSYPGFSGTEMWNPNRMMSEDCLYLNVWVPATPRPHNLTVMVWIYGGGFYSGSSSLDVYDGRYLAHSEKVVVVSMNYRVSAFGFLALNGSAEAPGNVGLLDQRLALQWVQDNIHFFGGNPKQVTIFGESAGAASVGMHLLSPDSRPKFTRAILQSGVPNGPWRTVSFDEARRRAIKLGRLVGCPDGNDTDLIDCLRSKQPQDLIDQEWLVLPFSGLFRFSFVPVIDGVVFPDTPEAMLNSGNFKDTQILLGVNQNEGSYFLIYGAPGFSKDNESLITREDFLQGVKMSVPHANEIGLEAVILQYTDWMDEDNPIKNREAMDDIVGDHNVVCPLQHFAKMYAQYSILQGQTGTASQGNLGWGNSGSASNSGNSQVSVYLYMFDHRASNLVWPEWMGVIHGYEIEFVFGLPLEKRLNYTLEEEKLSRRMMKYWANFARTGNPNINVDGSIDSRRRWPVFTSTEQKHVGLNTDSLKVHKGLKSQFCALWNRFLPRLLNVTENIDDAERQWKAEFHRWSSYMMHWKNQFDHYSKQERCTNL

Consider `Cc1ccc(C(C)C)cc1O` [carvacrol, reference compound], for which the “activity against AChE (in words)” value was “inactive”.

As for `Cc1cc(Sc2nsc(-c3cc(C)c(O)cc3C(C)C)n2)c(C(C)C)cc1O` [compound 3, 4-((5-(4-hydroxy-2-isopropyl-5-methylphenyl)-1,2,4-thiadiazol-3-yl)thio)-5-isopropyl-2-methylphenol], the IC50 was 56 ± 25 nM.

With `Cc1cc(Sc2nsc(Sc3cc(C)c(O)cc3C(C)C)n2)c(C(C)C)cc1O` [compound 4], the IC50 was 34 ± 16 nM. As to `Cc1cc(Sc2cc(C)c(O)cc2C(C)C)c(C(C)C)cc1O` [compound 2, 4,4′-thiobis(5-isopropyl-2-methylphenol)], the IC50 worked out at 158 ± 59 nM. Regarding `Cc1cc(SC#N)c(C(C)C)cc1O` [compound 1, 5-isopropyl-2-methyl-4-thiocyanatophenol], the IC50 is 4086 ± 35 nM.
